Results published in paper PMC9545868, “Structure‐Based Demystification of Radical Catalysis by a Coenzyme B12 Dependent Enzyme—Crystallographic Study of Glutamate Mutase with Cofactor Homologues” (Angewandte Chemie (International Ed. in English), 2022).

Biological target: T1, glutamate mutase (GM) (Clostridium cochlearium, UniProt P80077+P80078)
T1 construct: gene glmE; hetero-tetramer of two epsilon and two sigma subunits; construct details only in the supplement
T1 sequence (P80077 1-483): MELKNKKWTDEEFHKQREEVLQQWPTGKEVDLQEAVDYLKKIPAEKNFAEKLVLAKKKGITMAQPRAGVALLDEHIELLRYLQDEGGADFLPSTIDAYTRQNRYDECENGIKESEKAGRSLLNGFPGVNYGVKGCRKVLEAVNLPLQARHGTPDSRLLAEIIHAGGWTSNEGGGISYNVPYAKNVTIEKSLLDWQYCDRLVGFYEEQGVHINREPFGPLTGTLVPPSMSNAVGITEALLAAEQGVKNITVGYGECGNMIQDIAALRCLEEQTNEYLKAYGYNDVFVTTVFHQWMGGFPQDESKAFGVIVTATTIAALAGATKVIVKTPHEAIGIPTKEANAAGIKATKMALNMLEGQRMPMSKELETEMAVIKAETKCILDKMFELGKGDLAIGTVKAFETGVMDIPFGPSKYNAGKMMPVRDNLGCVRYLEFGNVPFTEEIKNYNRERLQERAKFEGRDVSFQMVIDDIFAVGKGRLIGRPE
T1 sequence (P80078 1-137): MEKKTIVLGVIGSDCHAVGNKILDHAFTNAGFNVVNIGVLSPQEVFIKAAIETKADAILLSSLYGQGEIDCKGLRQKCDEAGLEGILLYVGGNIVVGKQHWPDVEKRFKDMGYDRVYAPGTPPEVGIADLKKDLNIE
Test: X-ray crystal structures, […] and […] Å
Type: binding
Conditions: pseudo-substrate in the substrate site of the epsilon subunit (arginine claw R66, R100, R149); with AdoMeCbl or AdoEtCbl bound

**Q.** For `O=C(O)[C@@H](O)[C@H](O)C(=O)O` [(S,S)‐tartrate], which “X-ray crystal structures, 1.8 and 2.1 Å” value is on record?
**A.** strong polar binding interactions with the carboxylate groups of an (S,S)‐tartrate ion
